These results are taken from ChEMBL document CHEMBL1201862, “PubChem BioAssay data set” (2004).

Some test systems named below: SN12C; UACC-62; SF-295; Hs-578T; SK-MEL-28; MOLT-4; SR; LOX IMVI; MDA-N; ACHN; SK-OV-3; MDA-MB-231; MCF7; SF-539; U-251; SK-MEL-2; TK-10; NCI/ADR-RES; CAKI-1; HCC 2998.
Assay in all cases: growth of human tumour cells (NCI), 48 h

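Values below derive from 48-hour exposures of cells grown in 96-well plates, with endpoints linearly interpolated between the two concentrations bracketing the appropriate inhibition level. Abbreviation: GI50, concentration required for 50% inhibition of growth.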 Activity calls are given as the source filed them. No stated cut-off is given here; in the data, active = GI50 up to about 1.1 µM and inactive = higher.

For the compound `CC(=O)Nc1nc(NC(C)=O)c2nc(CO)[nH]c2n1`, the GI50 with SN12C, with UACC-62, with SF-295, in the assay on Hs-578T, in the assay on SK-MEL-28 and in the assay with MOLT-4 was > 100 µM (inactive) throughout. Further, the GI50 in the assay on SR, with LOX IMVI, with MDA-N, in the assay with ACHN, with SK-OV-3 and with MDA-MB-231 was > 100 µM (inactive) throughout. The GI50 in the assay with MCF7, in the assay on SF-539, with U-251, in the assay on SK-MEL-2, with TK-10 and in the assay on NCI/ADR-RES was > 100 µM (inactive) each time. In addition, the GI50 in the assay with CAKI-1 and in the assay on HCC 2998 was > 100 µM (inactive) throughout.

Consider `CCOc1ccc(Nc2nc(N)nc(N)c2N=O)cc1`, for which the GI50 with SN12C is 56.6 µM (inactive); in the assay with UACC-62, 44.1 µM (inactive); in the assay with SF-295, > 100 µM (inactive); in the assay on Hs-578T, 50.9 µM (inactive); in the assay on SK-MEL-28, 66.5 µM (inactive); in the assay on MOLT-4, 17.6 µM (inactive). Further, the GI50 with SR is 71.1 µM (inactive); with LOX IMVI it was 32.1 µM (inactive); in the assay on MDA-N it was 62.1 µM (inactive); in the assay with ACHN, 42.1 µM (inactive); in the assay with SK-OV-3, > 100 µM (inactive); in the assay with MDA-MB-231 it was 40 µM (inactive). The GI50 with MCF7 is 38.4 µM (inactive); with SF-539, 80.5 µM (inactive); with U-251, > 100 µM (inactive); with SK-MEL-2 it was 65.2 µM (inactive); with TK-10, 34.3 µM (inactive); with NCI/ADR-RES, 47.1 µM (inactive). In addition, the figures for the GI50 with CAKI-1 and with HCC 2998 were 10.9 µM (inactive) and 55.2 µM (inactive), respectively.

Take `Cc1nn(C(=O)c2ccncc2)c2c1C(c1ccccc1)SC(=N)N2` (stereo not given): the GI50 in the assay with SN12C, with UACC-62, with SF-295, in the assay with Hs-578T, with SK-MEL-28 and with MOLT-4 was > 10 µM (inactive) throughout. Further, the GI50 in the assay with SR, in the assay with LOX IMVI, with MDA-N, with ACHN, in the assay with SK-OV-3 and in the assay on MDA-MB-231 was > 10 µM (inactive) each time. Further, the GI50 in the assay on MCF7, in the assay on SF-539, in the assay on U-251, with SK-MEL-2, in the assay with TK-10 and in the assay with NCI/ADR-RES was > 10 µM (inactive) each time. Moreover, the GI50 in the assay with CAKI-1 and with HCC 2998 was > 10 µM (inactive) in each case.

For `O=C1/C(=C\c2ccc(-c3ccc(Cl)cc3Cl)o2)SC2NC(COc3ccc(Cl)cc3)=NN12` (stereo not given), the GI50 in the assay with SN12C was 72.1 µM (inactive); in the assay with UACC-62 it was 34 µM (inactive); with SF-295 it was 45.3 µM (inactive); with Hs-578T, 25.5 µM (inactive); with SK-MEL-28, > 100 µM (inactive); with MOLT-4 it was 31.8 µM (inactive). Further, the GI50 is 33.3 µM (inactive) in the assay with SR; 52.1 µM (inactive) in the assay with LOX IMVI; 44.2 µM (inactive) with MDA-N; 53.7 µM (inactive) with ACHN; 88.3 µM (inactive) in the assay with SK-OV-3; 44 µM (inactive) in the assay on MDA-MB-231. Moreover, the GI50 in the assay on MCF7 is 33.4 µM (inactive); in the assay with SF-539, 49 µM (inactive); with U-251 it was 21.4 µM (inactive); with SK-MEL-2 it was 50.5 µM (inactive); in the assay with TK-10, 2.96 µM (inactive); in the assay with NCI/ADR-RES, 37.5 µM (inactive). Moreover, the GI50 with CAKI-1 is 51.1 µM (inactive); in the assay on HCC 2998 it was 41.1 µM (inactive).

For the compound `CO/N=[N+](\[O-])NC(C)C`, the GI50 with SN12C, in the assay with UACC-62, in the assay on SF-295, with Hs-578T, with SK-MEL-28 and with MOLT-4 was > 100 µM (inactive) in each case. In addition, the GI50 in the assay on SR, in the assay on LOX IMVI, with MDA-N, in the assay with ACHN, in the assay on SK-OV-3 and in the assay on MDA-MB-231 was > 100 µM (inactive) in each case. Further, the GI50 in the assay with MCF7, in the assay on SF-539, in the assay with U-251, in the assay on SK-MEL-2, in the assay with TK-10 and in the assay with NCI/ADR-RES was > 100 µM (inactive) throughout. The GI50 in the assay with CAKI-1 and with HCC 2998 was > 100 µM (inactive) each time.

`CN1CCN(CCCCN2c3ccccc3Sc3ccc(C(=O)c4ccccc4)cc32)CC1`: the GI50 in the assay with SN12C is 1.71 µM (inactive); with UACC-62, 1.26 µM (inactive); in the assay on SF-295 it was 1.8 µM (inactive); in the assay on Hs-578T, 1.58 µM (inactive); in the assay with SK-MEL-28 it was 1.49 µM (inactive); in the assay with MOLT-4, 1.71 µM (inactive). In addition, the GI50 with SR is 1.41 µM (inactive); in the assay on LOX IMVI, 1.46 µM (inactive); with MDA-N, 1.55 µM (inactive); in the assay with ACHN, 1.67 µM (inactive); in the assay on SK-OV-3, 1.57 µM (inactive); in the assay with MDA-MB-231, 1.9 µM (inactive). In addition, the GI50 in the assay on MCF7 is 1.91 µM (inactive); in the assay on SF-539, 1.83 µM (inactive); in the assay with U-251 it was 1.69 µM (inactive); in the assay with SK-MEL-2 it was 1.77 µM (inactive); in the assay with TK-10, 1.67 µM (inactive); with NCI/ADR-RES, 1.86 µM (inactive). In addition, the results for the GI50 in the assay on CAKI-1 and in the assay on HCC 2998 were 1.44 µM (inactive) and 1.56 µM (inactive), respectively.

In the case of `CN(C)CCn1c(=O)c2ccc(NCCN3CCNCC3)c3c(=O)c4ccccc4n(c1=O)c23`, the GI50 with SN12C is 1.47 µM (inactive); with UACC-62, 3.47 µM (inactive); in the assay on SF-295, 1.02 µM (active); in the assay with Hs-578T, 3.04 µM (inactive); in the assay on SK-MEL-28 it was 6.61 µM (inactive); with MOLT-4, 0.0294 µM (active). For the same compound, the GI50 in the assay on SR is 0.0776 µM (active); with LOX IMVI, 1.69 µM (inactive); in the assay with MDA-N, 3.68 µM (inactive); in the assay on ACHN, 1.27 µM (inactive); in the assay on SK-OV-3, 3.45 µM (inactive); in the assay with MDA-MB-231 it was 2.56 µM (inactive). Besides, the GI50 was 0.743 µM (active) in the assay with MCF7; 0.473 µM (active) in the assay on SF-539; 1.11 µM (active) in the assay with U-251; 2.56 µM (inactive) in the assay with SK-MEL-2; 4.86 µM (inactive) in the assay with TK-10; 9.93 µM (inactive) in the assay on NCI/ADR-RES. The GI50 in the assay with CAKI-1 is 2.04 µM (inactive); in the assay on HCC 2998, 1.97 µM (inactive).
